Assay [1] relates to E. coli ATCC 25922. The class given is cell-based, Escherichia coli. An outline of the steps: (§1)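 CLSI broth microdilution adapted for cationic peptides, in Mueller-Hinton broth, inoculum 2-8×10^5 cfu/mL. Peptides serially diluted from 128 to 0.5 μg/mL in polypropylene plates, incubated 20-24 h at 37° C. MIC = lowest concentration without visible growth.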
Assay [2] deals with Salmonella enterica serovar Enteritidis (human clinical isolate). Type of assay: cell-based. Put shortly:
as §1

The subject of assay [3] is S. aureus ATCC 29213. The class given is cell-based, Staphylococcus aureus. Put shortly:
as §1

The subject of assay [4] is E. coli ATCC 25922, Salmonella Enteritidis, S. aureus ATCC 29213. Kind of assay: Broth microdilution, panel result (at least one / all strains), Example 2. Type of assay: cell-based. Details: key to inhibitory activity (asterisk): *Indicates inhibitory activity. The conditions noted are these: for inhibitory activity (asterisk): Table 14, against at least one of E. coli ATCC 25922, Salmonella Enteritidis, S. aureus ATCC 29213. An outline of the steps:
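CLSI broth microdilution adapted for cationic peptides, in MHB with a final inoculum of 2-8×10^5 cfu/mL in polypropylene plates. Peptides were serially diluted from 128 down to 0.5 μg/mL and incubated 20-24 h at 37° C. MIC is the lowest concentration with no visible growth.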

Where [5] appears, read: serovar Enteritidis (human clinical isolate).

The values below come from patent US20260242416A1, “ANTIMICROBIAL PEPTIDES” (priority 2023, published 2026).

≈ marks a conversion by molar mass, not a printed value. Like-named read-outs stand apart in the source and are kept apart here. Where a SMILES comes first, the peptide text is derived from it.

Regarding `CC(C)C[C@H](NC(=O)CN)C(=O)N[C@@H](CC(C)C)C(=O)NCC(=O)N[C@@H](CCCCN)C(=O)N[C@H](C(=O)N[C@@H](CC(C)C)C(=O)NCC(=O)N[C@H](C(=O)NCC(=O)N[C@@H](CCCCN)C(=O)N[C@@H](CCCCN)C(=O)N[C@H](C(=O)N[C@@H](CC(C)C)C(=O)N[C@@H](CS)C(=O)O)C(C)C)C(C)C)C(C)C` [PeNi4, GLLGKVLGVGKKVLC] (H-GLLGKVLGVGKKVLC-OH; N-terminus and C-terminus assumed), the “MIC (ug/mL) E. coli” value in assay [1] (ATCC 25922) fell in the range of 8 to 16 µg/mL. Also, the “MIC (ug/mL) S. Enteritidis” value in assay [2] (setting [5]) lay within 4 to 8 µg/mL. Further, the “MIC (ug/mL) S. aureus” value in assay [3] (ATCC 29213) lay in the range of 4 to 8 µg/mL. In assay [4], the “inhibitory activity (asterisk)” value is 424.* GLLGKVLGVGKKVLC.
As for `C[C@H](NC(=O)CN)C(=O)N1CCC[C@H]1C(=O)N[C@@H](CCCCN)C(=O)NCC(=O)N[C@@H](CS)C(=O)N[C@@H](Cc1c[nH]c2ccccc12)C(=O)N[C@H](C(=O)N[C@@H](CCCCN)C(=O)N[C@@H](CO)C(=O)N[C@@H](Cc1ccc(O)cc1)C(=O)N1CCC[C@H]1C(=O)N1CCC[C@H]1C(=O)N[C@@H](CCCCN)C(=O)N1CCC[C@H]1C(=O)N[C@@H](CS)C(=O)N[C@@H](CO)C(=O)NCC(=O)N[C@@H](CCCCN)C(=O)N[C@@H](CCCNC(=N)N)C(N)=O)[C@@H](C)O` [PeNi12] (H-GAPKGCWTKSYPPKPCSGKR-NH2; N-terminus and C-terminus assumed), the “MIC (ug/mL) E. coli” value in assay [1] (ATCC 25922) is on record as >128/>128/>128 ug/mL. The “MIC (ug/mL) S. Enteritidis” value in assay [2] (setting [5]) is on record as >128/>128/>128 ug/mL. Also, in assay [3] (ATCC 29213), the “MIC (ug/mL) S. aureus” value is reported as >128/>128/>128 ug/mL. Besides, the “spectrum of antimicrobial activity” value in assay [4] (panel of E. coli, Salmonella Enteritidis, S. aureus, up to 128 μg/mL) was “non-inhibitory against the panel of bacteria at the concentrations tested”.
As to `CC[C@H](C)[C@H](N)C(=O)N[C@@H](CO)C(=O)N[C@H](C(=O)N[C@@H](CCCCN)C(=O)N[C@@H](CCC(=O)O)C(=O)N[C@@H](C)C(=O)N[C@@H](CC(C)C)C(=O)N[C@@H](CCC(=O)O)C(=O)N[C@@H](Cc1c[nH]cn1)C(=O)N[C@@H](CO)C(=O)N[C@@H](Cc1ccccc1)C(=O)N[C@@H](Cc1ccccc1)C(=O)N[C@@H](Cc1c[nH]cn1)C(=O)N[C@H](C(=O)N[C@H](C(=O)N1CCC[C@H]1C(=O)N[C@@H](CCCNC(=N)N)C(=O)N[C@@H](CCCCN)C(=O)N[C@@H](Cc1c[nH]c2ccccc12)C(=O)N[C@@H](CS)C(=O)N[C@@H](CCCCN)C(=O)N[C@@H](CCCCN)C(=O)N[C@@H](Cc1c[nH]cn1)C(=O)O)C(C)C)[C@@H](C)O)[C@@H](C)CC` [PoSn1] (H-ISIKEALEHSFFHTVPRKWCKKH-OH), in assay [1] (ATCC 25922), the “MIC (ug/mL) E. coli” value is listed as 64/>128/>128 ug/mL. Also, the “MIC (ug/mL) S. Enteritidis” value in assay [2] (setting [5]) is given as 64/>128/>128 ug/mL. In addition, the “MIC (ug/mL) S. aureus” value in assay [3] (ATCC 29213) was 64/>128/>128 ug/mL. Further, in assay [4], the “inhibitory activity (asterisk)” value is on record as 936.* ISIKEALEHSFFHTVPRKWCKKH.
On to `CC[C@H](C)[C@H](NC(=O)[C@H](CO)NC(=O)[C@H](CC(C)C)NC(=O)[C@H](CO)NC(=O)[C@H](CCCCN)NC(=O)[C@H](CC(C)C)NC(=O)[C@H](C)NC(=O)[C@@H](N)[C@@H](C)O)C(=O)N[C@@H](CC(C)C)C(=O)N[C@@H](CCCCN)C(=O)N[C@@H](CCCCN)C(=O)N[C@@H](CC(C)C)C(=O)N[C@@H](C)C(=O)N[C@@H](CCCCN)C(=O)N[C@@H](CC(C)C)C(=O)N[C@@H](CC(N)=O)C(=O)N[C@@H](CCSC)C(=O)O` [PoSn2, TALKSLSILKKLAKLNM] (H-TALKSLSILKKLAKLNM-OH; N-terminus and C-terminus assumed), for which, in assay [1] (Table 14, first value of the cell, three independent experiments, highest concentration tested 128), the “MIC (ug/mL) E. coli” value lay within 64 to 128 µg/mL. Also, in assay [2] (Table 14, second value of the cell, three independent experiments, highest concentration tested 128), the “MIC (ug/mL) S. Enteritidis” value was over 128 µg/mL. For the same compound, the “MIC (ug/mL) S. aureus” value in assay [3] (Table 14, third value of the cell, three independent experiments, highest concentration tested 128) was over 128 µg/mL. The “inhibitory activity (asterisk)” value in assay [4] is listed as 942.* TALKSLSILKKLAKLNM.
Regarding `CC[C@H](C)[C@H](NC(=O)CN)C(=O)N[C@@H](CC(C)C)C(=O)N[C@@H](CO)C(=O)NCC(=O)N[C@@H](CC(C)C)C(=O)N[C@@H](CC(C)C)C(=O)NCC(=O)N[C@@H](C)C(=O)NCC(=O)N[C@@H](CCCCN)C(=O)N[C@@H](CCCCN)C(=O)N[C@H](C(=O)N[C@H](C(=O)N[C@@H](CS)C(=O)NCC(=O)N[C@@H](CC(C)C)C(=O)N[C@@H](CO)C(=O)NCC(=O)N[C@@H](CCSC)C(=O)N[C@@H](CS)C(=O)O)C(C)C)[C@@H](C)CC` [RaOm2] (H-GILSGLLGAGKKIVCGLSGMC-OH; N-terminus and C-terminus assumed), in assay [1] (ATCC 25922), the “MIC (ug/mL) E. coli” value lay in the range of 64 to 128 µg/mL. The “MIC (ug/mL) S. Enteritidis” value in assay [2] (setting [5]) was over 128 µg/mL. Also, the “MIC (ug/mL) S. aureus” value in assay [3] (ATCC 29213) was over 128 µg/mL. Besides, the “inhibitory activity (asterisk)” value in assay [4] is listed as 629.* GILSGLLGAGKKIVCGLSGMC.
Turning to `CC[C@H](C)[C@H](NC(=O)CN)C(=O)N[C@@H](Cc1ccccc1)C(=O)N[C@@H](CO)C(=O)N[C@@H](CC(C)C)C(=O)N[C@H](C(=O)N[C@@H](CCCCN)C(=O)NCC(=O)N[C@@H](C)C(=O)N[C@@H](C)C(=O)N[C@@H](CCCCN)C(=O)N[C@H](C(=O)N[C@H](C(=O)N[C@@H](C)C(=O)N[C@@H](CCCCN)C(=O)NCC(=O)N[C@@H](CC(C)C)C(=O)NCC(=O)N[C@@H](CCCCN)C(=O)O)C(C)C)C(C)C)[C@@H](C)CC` [RaOm3, GIFSLIKGAAKVVAKGLGK] (H-GIFSLIKGAAKVVAKGLGK-OH; N-terminus and C-terminus assumed), in assay [1] (ATCC 25922), the “MIC (ug/mL) E. coli” value is 8 to 16 µg/mL. Besides, in assay [2] (setting [5]), the “MIC (ug/mL) S. Enteritidis” value is 32 to 64 µg/mL. For the same compound, the “MIC (ug/mL) S. aureus” value in assay [3] (ATCC 29213) came out at 64 µg/mL (≈ 34.5 µM). Moreover, the “inhibitory activity (asterisk)” value in assay [4] is on record as 1099.* GIFSLIKGAAKVVAKGLGK.
As for `CC(C)C[C@H](NC(=O)CN)C(=O)N[C@@H](CC(C)C)C(=O)NCC(=O)N[C@@H](CCCCN)C(=O)N[C@H](C(=O)N[C@@H](CC(C)C)C(=O)NCC(=O)N[C@H](C(=O)NCC(=O)N[C@@H](CCCCN)C(=O)N[C@@H](CCCCN)C(=O)N[C@H](C(=O)N[C@@H](CC(C)C)C(=O)N[C@@H](CS)C(=O)NCC(=O)N[C@H](C(=O)N[C@@H](CO)C(=O)NCC(=O)N[C@@H](CCCNC(=N)N)C(=O)N[C@@H](CS)C(=O)O)C(C)C)C(C)C)C(C)C)C(C)C` [RaOm4] (H-GLLGKVLGVGKKVLCGVSGRC-OH; N-terminus and C-terminus assumed), the “MIC (ug/mL) E. coli” value in assay [1] (ATCC 25922) lay within 4 to 8 µg/mL. Further, the “MIC (ug/mL) S. Enteritidis” value in assay [2] (setting [5]) was 32 µg/mL (≈ 15.7 µM). Moreover, the “MIC (ug/mL) S. aureus” value in assay [3] (ATCC 29213) was in the range of 64 to 128 µg/mL. In addition, the “inhibitory activity (asterisk)” value in assay [4] was 628.* GLLGKVLGVGKKVLCGVSGRC.
The like results for `CC[C@H](C)[C@H](NC(=O)[C@H](CC(C)C)NC(=O)[C@H](CCCCN)NC(=O)[C@H](CC(C)C)NC(=O)CNC(=O)CNC(=O)[C@H](CCCCN)NC(=O)[C@@H](NC(=O)[C@H](CC(C)C)NC(=O)[C@H](CCCCN)NC(=O)CNC(=O)[C@@H](NC(=O)[C@H](CC(C)C)NC(=O)CN)C(C)C)C(C)C)C(=O)NCC(=O)N[C@@H](Cc1c[nH]cn1)C(=O)N[C@H](C(=O)N[C@@H](C)C(=O)N[C@@H](CC(N)=O)C(=O)NCC(=O)O)C(C)C` [RaSi1] (H-GLVGKLVKGGLKLIGHVANG-OH; N-terminus and C-terminus assumed) were, in that order, 8 to 16 µg/mL, over 128 µg/mL, 64 to 128 µg/mL and 2.* GLVGKLVKGGLKLIGHVANG.
